Reference: ChEMBL document CHEMBL5506024, “Multitarget μ-Opioid Receptor Agonists─Neuropeptide FF Receptor Antagonists Induce Potent Antinociception with Reduced Adverse Side Effects” (J Med Chem, 2024)
Calls of active or inactive are those of the source. Numbered stars: 1 amine (or outer) side, 2 acyl side, 3 side chain; on linkers, the order of the positions; unused ones are H or OH. Square brackets hold non-standard residues; d marks the D form. Peptide text beside a SMILES is read from it. * marks the point of attachment. Nva(5-(4-Bn-piperidin-1-yl)) = N[C@@H](CCCN1CCC(Cc2ccccc2)CC1)C(=O)O; X2 = O=C1[C@@H](N[*:1])Cc2ccccc2CN1CCCC(=O)[*:2]; X1 = O=C1[C@@H](N[*:1])Cc2ccccc2CN1CCC(=O)[*:2]; Dmt = Cc1cc(O)cc(C)c1C[C@H](N)C(=O)O; Nicotinoyl = O=C(c1cccnc1)*; dOrn = NCCC[C@@H](N)C(=O)O; dNMeA = CN[C@H](C)C(=O)O

Key:
[1] = biological target: T1, Mu-type opioid receptor (Homo sapiens, UniProt P35372); assay: Agonist activity at human MOP expressed in HEK293 cells coexpressing GloSensor-20F assessed as inhibition of forskolin-induced cAMP accumulation; type: functional, cell-based
T1 sequence (P35372 whole entry): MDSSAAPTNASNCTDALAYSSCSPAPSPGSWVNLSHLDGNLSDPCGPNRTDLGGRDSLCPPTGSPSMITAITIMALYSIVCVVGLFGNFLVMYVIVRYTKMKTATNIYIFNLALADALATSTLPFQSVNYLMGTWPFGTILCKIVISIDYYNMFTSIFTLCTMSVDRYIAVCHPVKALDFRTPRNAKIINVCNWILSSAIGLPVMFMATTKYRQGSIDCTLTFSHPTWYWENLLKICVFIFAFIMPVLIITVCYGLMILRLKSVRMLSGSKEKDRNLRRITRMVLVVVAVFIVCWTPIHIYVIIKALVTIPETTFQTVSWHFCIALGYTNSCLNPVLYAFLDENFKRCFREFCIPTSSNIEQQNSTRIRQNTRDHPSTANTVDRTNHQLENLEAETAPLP

[2] = biological target: T1, Mu-type opioid receptor; assay: Agonist activity at human MOP expressed in HEK293 cells coexpressing GloSensor-20F assessed as inhibition of forskolin-induced cAMP accumulation relative to control; type: functional, cell-based; conditions: filed as agonist
[3] = biological target: T1, Mu-type opioid receptor; assay: Agonist activity at human Rluc8-tagged MOP expressed in HEK293 cells coexpressing eYFP-tagged beta-arrestin-2 assessed as beta-arrestin-2 recruitment incubated for 5 mins by luminometer analysis; type: functional, cell-based
[4] = biological target: T1, Mu-type opioid receptor; assay: Agonist activity at human Rluc8-tagged MOP expressed in HEK293 cells coexpressing eYFP-tagged beta-arrestin-2 assessed as beta-arrestin-2 recruitment incubated for 5 mins by luminometer analysis relative to control; type: functional, cell-based
[5] = biological target: T2, Neuropeptide FF receptor 1 (Homo sapiens, UniProt Q9GZQ6); assay: Displacement of [125I]-1DMeNPFF from human NPFFR1 expressed in CHO cell membrane at 0.5 uM incubated for 1 hr by Topcount counting method relative to control; type: cell membranes
T2 sequence (Q9GZQ6 whole entry): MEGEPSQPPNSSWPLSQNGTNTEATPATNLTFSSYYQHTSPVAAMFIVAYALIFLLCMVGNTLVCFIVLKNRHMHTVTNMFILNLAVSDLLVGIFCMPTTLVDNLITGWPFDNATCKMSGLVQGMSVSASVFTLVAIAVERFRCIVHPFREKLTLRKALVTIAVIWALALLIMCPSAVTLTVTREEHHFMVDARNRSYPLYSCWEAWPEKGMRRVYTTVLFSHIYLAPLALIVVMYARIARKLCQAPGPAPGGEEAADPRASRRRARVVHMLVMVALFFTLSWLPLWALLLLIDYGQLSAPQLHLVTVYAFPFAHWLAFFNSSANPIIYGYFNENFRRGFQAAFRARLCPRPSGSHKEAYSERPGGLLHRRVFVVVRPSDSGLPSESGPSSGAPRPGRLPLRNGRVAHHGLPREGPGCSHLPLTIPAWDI

[6] = biological target: T2, Neuropeptide FF receptor 1; assay: Antagonist activity at human NPFFR1 expressed in CHO cell membrane assessed as inhibition of NPVF induced cAMP response at 5 uM incubated for 1 hr by Topcount counting method relative to control; type: functional, cell membranes; set-up: scale not given: the % may be the effect or the level left
[7] = biological target: T3, Neuropeptide FF receptor 2 (Homo sapiens, UniProt Q9Y5X5); assay: Displacement of [125I]-1DMeNPFF from human NPFFR2 expressed in CHO cell membrane at 0.05 uM incubated for 1 hr by Topcount counting method relative to control; type: cell membranes; conditions: filed as antagonist
T3 sequence (Q9Y5X5 whole entry): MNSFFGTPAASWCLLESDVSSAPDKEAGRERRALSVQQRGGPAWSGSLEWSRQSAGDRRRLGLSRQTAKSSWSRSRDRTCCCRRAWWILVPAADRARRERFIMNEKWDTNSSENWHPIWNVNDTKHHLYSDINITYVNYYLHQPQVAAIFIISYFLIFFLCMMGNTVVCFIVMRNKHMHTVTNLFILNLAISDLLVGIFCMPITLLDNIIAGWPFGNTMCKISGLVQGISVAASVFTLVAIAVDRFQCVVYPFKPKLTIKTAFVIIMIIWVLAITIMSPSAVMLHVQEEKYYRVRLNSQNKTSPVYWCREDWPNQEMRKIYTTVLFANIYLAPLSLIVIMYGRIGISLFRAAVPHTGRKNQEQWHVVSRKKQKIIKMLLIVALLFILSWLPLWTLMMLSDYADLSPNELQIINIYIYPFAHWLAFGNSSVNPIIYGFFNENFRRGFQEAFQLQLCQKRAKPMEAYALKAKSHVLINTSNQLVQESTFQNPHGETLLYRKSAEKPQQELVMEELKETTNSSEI

[8] = biological target: T3, Neuropeptide FF receptor 2; assay: Antagonist activity at human NPFFR2 expressed in CHO cell membrane assessed as inhibition of NPVF induced cAMP response at 5 uM incubated for 1 hr by Topcount counting method relative to control; type: functional, cell membranes; set-up: scale not given: the % may be the effect or the level left
[9] = biological target: Kappa-type opioid receptor (Homo sapiens, UniProt P41145); assay: Antagonist activity at human KOR expressed in HEK293 cells assessed as forskolin-induced cAMP accumulation in presence of IBMX; type: functional, cell-based; conditions: filed as antagonist
Kappa-type opioid receptor, sequence (P41145 whole entry): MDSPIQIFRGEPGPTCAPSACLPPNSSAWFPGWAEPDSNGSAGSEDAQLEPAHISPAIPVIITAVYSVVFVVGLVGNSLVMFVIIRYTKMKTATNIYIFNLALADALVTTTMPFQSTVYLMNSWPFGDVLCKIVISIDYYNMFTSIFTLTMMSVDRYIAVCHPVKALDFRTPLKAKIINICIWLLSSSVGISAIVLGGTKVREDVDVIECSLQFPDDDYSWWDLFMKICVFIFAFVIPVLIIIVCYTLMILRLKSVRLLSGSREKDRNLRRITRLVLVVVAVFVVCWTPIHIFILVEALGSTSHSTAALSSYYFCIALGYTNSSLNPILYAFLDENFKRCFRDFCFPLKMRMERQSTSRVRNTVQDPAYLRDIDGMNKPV

[10] = biological target: Nociceptin receptor (Homo sapiens) (UniProt P41146); assay: Antagonist activity at human NOR expressed in HEK293 cells assessed as forskolin-induced cAMP accumulation in presence of IBMX; type: functional, cell-based; conditions: filed as antagonist
Nociceptin receptor (Homo sapiens), sequence (P41146 whole entry): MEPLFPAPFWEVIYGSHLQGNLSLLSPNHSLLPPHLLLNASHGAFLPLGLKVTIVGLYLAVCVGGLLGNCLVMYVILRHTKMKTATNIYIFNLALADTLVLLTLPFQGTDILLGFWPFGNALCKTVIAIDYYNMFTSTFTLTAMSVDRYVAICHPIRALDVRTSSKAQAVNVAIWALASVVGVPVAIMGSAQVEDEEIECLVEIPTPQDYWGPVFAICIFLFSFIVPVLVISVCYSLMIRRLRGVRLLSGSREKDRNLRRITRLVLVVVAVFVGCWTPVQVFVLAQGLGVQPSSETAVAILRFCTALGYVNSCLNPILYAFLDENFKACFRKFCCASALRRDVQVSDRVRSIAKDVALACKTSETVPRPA

[11] = Cmax in mouse at 10 mg/kg, sc measured upto 24 hrs by LC-MS/MS analysis; type: ADME, organism-based; conditions: in vivo
[12] = Tmax in mouse at 10 mg/kg, sc measured upto 24 hrs by LC-MS/MS analysis; type: ADME, organism-based; conditions: in vivo
[13] = Half life in mouse at 10 mg/kg, sc measured upto 24 hrs by LC-MS/MS analysis; type: ADME, organism-based; conditions: in vivo
[14] = Drug concentration in mouse plasma at 10 mg/kg, sc measured after 2 hrs by LC-MS/MS analysis; type: ADME, organism-based
[15] = tested on: Mus musculus; assay: Antinociceptive activity in mouse at 4.2 umol/kg, sc administered chronically and measured on day 1; type: functional, organism-based; conditions: dose 4.2 µmol/kg
[16] = tested on: Mus musculus; assay: Antinociceptive activity in mouse at 4.2 umol/kg, sc administered chronically and measured on day 8; type: functional, organism-based; conditions: dose 4.2 µmol/kg
[17] = tested on: Mus musculus; assay: Antinociceptive activity in mouse at 4.2 umol/kg, sc administered daily and measured on day 1 and 8; type: functional, organism-based; conditions: dose 4.2 µmol/kg
[18] = Induction of naltrexone-precipitated withdrawal syndrome in sc dosed C57BL/6N mouse assessed as paw tremor administered for 8 days followed by naltrexone addition on day 9 after 2 hrs post last dose and measured after 30 mins; type: toxicity, organism-based; conditions: in vivo, 216.5 h, time 12990 min
[19] = Induction of naltrexone-precipitated withdrawal syndrome in sc dosed C57BL/6N mouse assessed as wet dog shake counts administered for 8 days followed by naltrexone addition on day 9 after 2 hrs post last dose and measured after 30 mins; type: toxicity, organism-based; conditions: in vivo, 216.5 h, time 12990 min
[20] = tested on: Mus musculus; assay: Antinociceptive activity in mouse at 10 mg/kg, sc administered daily and measured on day 8; type: functional, organism-based
[21] = tested on: Mus musculus; assay: Antinociceptive activity in mouse assessed as basal nociceptive threshold at 10 mg/kg, sc administered daily and measured on day 2 to 7; type: functional, organism-based
[22] = Induction of naltrexone-precipitated withdrawal syndrome in sc dosed C57BL/6N mouse assessed as somatic signs administered for 8 days followed by naltrexone addition on day 9 after 2 hrs post last dose and measured after 30 mins; type: toxicity, organism-based; conditions: in vivo, 216.5 h, time 12990 min
[23] = Induction of naltrexone-precipitated withdrawal syndrome in sc dosed C57BL/6N mouse assessed as vegetative signs administered for 8 days followed by naltrexone addition on day 9 after 2 hrs post last dose and measured after 30 mins; type: toxicity, organism-based; conditions: in vivo, 216.5 h, time 12990 min
[24] = Toxicity in sc dosed C57BL/6N mouse assessed as induction of respiratory depression by measuring decrease in pulmonary rate by plethysmography; type: organism-based; conditions: in vivo

Structure (SMILES): Cc1cc(O)cc(C)c1C[C@H](N)C(=O)N[C@H](CCCN)C(=O)N[C@H]1Cc2ccccc2CN(CCC(=O)N[C@@H](CCCN2CCC(Cc3ccccc3)CC2)C(=O)N[C@@H](Cc2ccccc2)C(N)=O)C1=O (H-[Dmt][dOrn][X1][Nva(5-(4-Bn-piperidin-1-yl))]F-NH2)
- EC50 [1]: 34 nM
- Emax [2]: 78%
- EC50 ([3]; read-out: EC50): 2350 nM
- Emax [4]: 20%
- Activity ([5]; filed as antagonist): 45%
- Activity [6]: 22%
- Activity [7]: 55%
- Activity [8]: 37%

Structure (SMILES): Cc1cc(O)cc(C)c1C[C@H](N)C(=O)N[C@H](CCCNC(=N)N)C(=O)N[C@H]1Cc2c(ccc3ccccc23)CN(CC(=O)N[C@@H](CCCN2CCC(Cc3ccccc3)CC2)C(=O)N[C@@H](Cc2ccccc2)C(N)=O)C1=O
- Emax [2]: 90%
- Emax [4]: 22%
- Activity [5]: 35%
- Activity [6]: 22%
- Activity [7]: 96%
- Activity ([8]; filed as antagonist): 91%

Structure (SMILES): Cc1cc(O)cc(C)c1C[C@H](N)C(=O)N[C@H](CCCNC(=N)N)C(=O)N[C@H]1Cc2ccccc2CN(CCC(=O)N[C@@H](CCCN2CCC(Cc3ccccc3)CC2)C(=O)N[C@@H](Cc2ccccc2)C(N)=O)C1=O
- EC50 [1]: 9.3 nM
- Emax [2]: 91%
- EC50 ([3]; read-out: EC50): 125 nM
- Emax ([4]; filed as agonist): 42%
- Activity ([5]; filed as antagonist): 80%
- Activity ([6]; filed as antagonist): 62%
- Activity [7]: 83%
- Activity ([8]; filed as antagonist): 54%
- Activity [9]: Active
- Activity [10]: Active
- Cmax [11]: 984 nM
- Tmax [12]: 2.67 h
- half-life [13]: 3.08 h
- concentration at 2 h [14]: 937 nM
- Activity [15]: Active
- Activity [16]: inactive
- Activity [17]: Active
- Activity [18]: Non-Toxic
- Activity [19]: Non-Toxic

Structure (SMILES): Cc1cc(O)cc(C)c1C[C@H](N)C(=O)N[C@H](CCCNC(=N)N)C(=O)N[C@H]1Cc2c(ccc3ccccc23)CN(CC(=O)N[C@@H](CCCN2CCC(Cc3ccccc3)CC2)C(=O)N[C@H](C(N)=O)C(C)C)C1=O
- Emax [2]: 102%
- Emax [4]: 22%
- Activity ([5]; filed as antagonist): 87%
- Activity ([6]; filed as antagonist): 51%
- Activity [7]: 77%
- Activity ([8]; filed as antagonist): 77%

Structure (SMILES): COc1ccsc1CNCC[C@@]1(c2ccccn2)CCOC2(CCCC2)C1 [OLICERIDINE]
- Activity [20]: inactive
- Activity [21]: inactive
- Activity [22]: Toxic
- Activity [23]: Toxic
- Activity [24]: Dose-Dependent Effect

Structure (SMILES): Cc1cc(O)cc(C)c1C[C@H](N)C(=O)N(C)[C@H](C)C(=O)N[C@H]1Cc2ccccc2CN(CCC(=O)N[C@@H](CCCN2CCC(Cc3ccccc3)CC2)C(=O)N[C@@H](Cc2ccccc2)C(N)=O)C1=O (H-[Dmt][dNMeA][X1][Nva(5-(4-Bn-piperidin-1-yl))]F-NH2)
- Emax [2]: 64%
- Emax [4]: 12%
- Activity ([5]; filed as antagonist): 43%
- Activity ([6]; filed as antagonist): 75%
- Activity [7]: 48%
- Activity ([8]; filed as antagonist): 45%

Structure (SMILES): Cc1cc(O)cc(C)c1C[C@H](N)C(=O)N[C@H](CCCCNC(=O)c1cccnc1)C(=O)N[C@H]1Cc2ccccc2CN(CCC(=O)N[C@@H](CCCN2CCC(Cc3ccccc3)CC2)C(=O)N[C@@H](Cc2ccccc2)C(N)=O)C1=O (H-[Dmt][dK](Nicotinoyl)[X1][Nva(5-(4-Bn-piperidin-1-yl))]F-NH2)
- Emax [2]: 92%
- EC50 ([3]; read-out: EC50): 12 nM
- Emax [4]: 16%
- Activity ([5]; filed as antagonist): 74%
- Activity [6]: 33%
- Activity [7]: 70%
- Activity ([8]; filed as antagonist): 59%

Structure (SMILES): Cc1cc(O)cc(C)c1C[C@H](N)C(=O)N[C@H](CCCNC(=N)N)C(=O)N[C@H]1Cc2c(ccc3ccccc23)CN(CC(=O)N[C@@H](CCCN2CCC(Cc3ccccc3)CC2)C(=O)N[C@@H](Cc2c[nH]c3ccccc23)C(N)=O)C1=O
- EC50 [1]: 10.5 nM
- Emax [2]: 65%
- EC50 ([3]; hek293): Not Active
- Activity ([5]; filed as antagonist): 68%
- Activity ([6]; filed as antagonist): 62%
- Activity [7]: 84%
- Activity ([8]; filed as antagonist): 83%

Structure (SMILES): Cc1cc(O)cc(C)c1C[C@H](N)C(=O)N(C)[C@H](C)C(=O)N[C@H]1Cc2ccccc2CN(CCCC(=O)N[C@@H](CCCN2CCC(Cc3ccccc3)CC2)C(=O)N[C@@H](Cc2ccccc2)C(N)=O)C1=O (H-[Dmt][dNMeA][X2][Nva(5-(4-Bn-piperidin-1-yl))]F-NH2)
- EC50 [1]: 10.6 nM
- Emax [2]: 66%
- EC50 ([3]; hek293): Not Active
- Activity ([5]; filed as antagonist): 57%
- Activity [6]: 12%
- Activity [7]: 65%
- Activity ([8]; filed as antagonist): 49%
